This series can be described thus: Solubility studies of fulvestrant in solvents, co-solvents, oils and release rate modifiers. The class given is physicochemical. Particulars: for solubility: read-out: Fulvestrant solubility achieved. On the procedure: Solubility studies of fulvestrant were performed using various combinations of solvent, co-solvents, oils and release rate modifiers. The resultant data are shown herein below Table 1.

One compound from US20170027958A1, “FULVESTRANT COMPOSITIONS” (THEMIS MEDICARE LIMITED, priority 2013, published 2017) can be followed below.

Each structure is given as a SMILES string. Where two headings read alike, the source gives them in different places.

On to `C[C@]12CC[C@@H]3c4ccc(O)cc4C[C@@H](CCCCCCCCC[S+]([O-])CCCC(F)(F)C(F)(F)F)[C@H]3[C@@H]1CC[C@@H]2O` (stereo partly drawn) [Fulvestrant, 7-alpha-[9-[(4,4,5,5,5-pentafluoropentyl)sulfinyl]nonyl]estra-1,3,5(10)-triene-3,17-beta-diol], for which, under “Benzyl alcohol (4 v/v %):Diethylene glycol monoethyl ether (q.s. to 1.7 mL)”, the Fulvestrant solubility achieved amounted to 300 mg/1.7 mL. Also, the solubility stood at 151 mg/mL (Benzyl alcohol (10 v/v %):Castor oil (50 v/v %):Diethylene glycol monoethyl ether (q.s. to 1 mL)) and 200 mg/mL (benzyl alcohol / diethylene glycol monoethyl ether mixture, Benzyl alcohol (2 v/v %):Diethylene glycol monoethyl ether (q.s. to 1 mL)).

By solubility is commonly meant the dissolved amount per volume that the medium holds.
